pEC50, pIC50: −log10 of the molar value.
Tests used:
[1] = system: phosphorylated STAT1 in B16-F10 cells; assay: Phospho-STAT1 (Tyr701) HTRF assay in B16-F10 cells with IFN-gamma; assay type: cell-based; conditions: mouse IFN-gamma 100 ng/mL, 1 hour, read-out: pSTAT1 HTRF B16F10 EC50
Description: B16-F10 cells (ATCC, Manassas, VA, #CRL-6475) were cultured in DMEM growth medium (ThermoFisher Scientific, Waltham, MA, #11995-040) supplemented with 10% heat-inactivated FBS (ThermoFisher Scientific, #16140-071) and 1% pen/strep (ThermoFisher Scientific, #15140-122). The cells were seeded into a white opaque 384-well tissue culture treated microplate (PerkinElmer, Waltham, MA, #6007688) at a density of 10,000 cells/well in 20 uL total volume and incubated overnight at 37 C and 5% CO2. 30 nL of compounds dissolved in DMSO were then transferred from a source plate into target wells with the Echo650 acoustic liquid handler (Beckman Coulter, Indianapolis, IN). Negative control wells received 30 nL of DMSO only (0.15% final concentration). Plates were returned to the incubator for 1 hour and then cells were treated with either 5 uL of growth medium or 5 uL of growth medium containing 500 ng/mL of recombinant mouse IFN-gamma protein (R&D Systems, Minneapolis, MN, #485-MI/CF, 100 ng/mL final concentration) using the Assist automated pipetting platform (INTEGRA Biosciences, Hudson, NH). Plates were incubated at 37 C for 1 hour and assayed for phosphorylated STAT1 protein levels with the phospho-STAT1 (Tyr701) HTRF kit (Cisbio, Bedford, MA, #63ADK026PEH) according to the manufacturer's instructions.

PTPN2 [2] = target: T1, PTPN2 (Homo sapiens (Human), UniProt P17706); assay: PhosphoSens assay (PTPN2 BCHEM); assay type: biochemical; conditions: substrate AQT0264 20 μM, PTPN2 150 pM
Description: A PhosphoSens® kinase assay was performed as described by the vendor (AssayQuant Technologies, Marlborough, MA). Briefly, 1000× solutions of compounds were prepared in DMSO via serial dilution of the 10 mM DMSO stocks using 3-fold intervals in a 384-well reagent plate. 50 nL of the compound dilution series was then added to the corresponding wells of a 384-well assay plate. […] Finally, […] of 5× PTPN2 enzyme stock was added to each well of the assay plate for a final enzyme concentration of 150 pM. Reaction progress curves were collected by sampling fluorescence intensity at the excitation wavelength 360 nm (λex360) and emission wavelength 480 nm (λem480) every 71 seconds for one hour using a Synergy H4 plate reader (BioTek Instruments/Agilent Technologies, Winooski, VT) at room temperature.
Target sequence in this assay (P17706 whole entry): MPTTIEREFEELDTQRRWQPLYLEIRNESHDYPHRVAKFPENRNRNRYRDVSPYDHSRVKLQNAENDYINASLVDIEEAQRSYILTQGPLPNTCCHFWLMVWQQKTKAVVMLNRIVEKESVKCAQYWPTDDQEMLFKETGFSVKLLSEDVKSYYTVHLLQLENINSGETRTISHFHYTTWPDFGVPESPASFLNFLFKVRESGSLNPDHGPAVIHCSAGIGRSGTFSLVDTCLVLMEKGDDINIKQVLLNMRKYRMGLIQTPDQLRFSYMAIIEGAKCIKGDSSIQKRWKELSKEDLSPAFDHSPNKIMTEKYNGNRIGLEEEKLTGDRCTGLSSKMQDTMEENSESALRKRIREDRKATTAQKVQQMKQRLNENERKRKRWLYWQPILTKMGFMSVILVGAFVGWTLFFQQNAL

PTPN2 [3] = target: T1, PTPN2; assay: Phosphatase activity assay using DiFMUP as substrate; assay type: biochemical; conditions: PTPN2 0.15 nM, 10 mM DTT
Description: The PTPN2 biochemical assay was performed as follows, a 5× stock solution of human PTPN2 (SRP5075, MilliporeSigma, Burlington, MA) and a 1.25× stock solution of DiFMUP (D6567, ThermoFisher Scientific, Waltham, MA), were prepared in 1× reaction buffer consisting of 50 mM HEPES, pH 7.4, 1 mM EDTA, 150 mM NaCl, 0.2 mg/mL BSA, 100 U/mL catalase and 10 mM DTT. […] of the DiFMUP substrate solution, for a final concentration of […] DiFMUP substrate, was added to a Corning 3574 384-well, white, non-binding surface microtiter plate containing […] of serially diluted test compounds prepared in DMSO. The reactions were started with the addition of […] of the enzyme solution, for a final PTPN2 concentration of 0.15 nM, and monitored every 105 seconds for 60 minutes at λEX 360/λEM 460 in a BioTek Synergy HTX plate reader (Agilent Technologies, Santa Clara, CA) at room temperature. The initial linear portions of the progress curves were fit according to a linear equation to yield the slopes and converted to % inhibition based on a value of 100% activity for the no inhibitor treated control. IC50 values of each compound were obtained by fitting the % inhibition-compound concentration curves using Dotmatics software (Dotmatics, Bishops Stortford, Hertfordshire, England),
Target sequence in this assay (P17706 other isoform, or with tags, fused parts or gaps isoform P17706-2): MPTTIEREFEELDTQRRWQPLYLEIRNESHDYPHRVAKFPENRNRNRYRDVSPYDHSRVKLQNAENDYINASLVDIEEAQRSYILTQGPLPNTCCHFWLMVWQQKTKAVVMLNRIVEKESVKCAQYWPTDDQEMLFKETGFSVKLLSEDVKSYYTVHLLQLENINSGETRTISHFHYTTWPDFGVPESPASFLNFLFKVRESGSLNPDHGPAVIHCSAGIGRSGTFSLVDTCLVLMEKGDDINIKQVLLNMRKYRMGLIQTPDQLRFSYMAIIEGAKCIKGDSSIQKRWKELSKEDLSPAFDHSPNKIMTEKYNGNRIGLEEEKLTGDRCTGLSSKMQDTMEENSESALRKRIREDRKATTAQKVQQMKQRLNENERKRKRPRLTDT

B16-F10 cells = assay: Cell proliferation assay (CellTiter-Glo) in B16-F10 cells with IFN-gamma; assay type: cell-based; conditions: 120 h, mouse IFN-gamma 10 ng/mL, read-out: PTPN2 Prolif 5d B16F10 EC50

| SMILES | pEC50 [1] | pIC50 (PTPN2 [2]) | pIC50 (PTPN2 [3]) | pEC50 (B16-F10 cells) |
| --- | --- | --- | --- | --- |
| Cc1cc(NCc2cc(O)c(N3CC(=O)NS3(=O)=O)c(F)c2)ncc1C#N [EXAMPLE 32, 6-[[3-fluoro-5-hydroxy-4-(1,1,4-trioxo-1,2,5-thiadiazolidin-2-yl)phenyl]methylamino]-4-methyl-pyridine-3-carbonitrile] | 5.63 | 7.52 | 7.30 | 5.34 |
| Cc1cnc(NCc2cc(O)c(N3CC(=O)NS3(=O)=O)c(F)c2)cc1F [EXAMPLE 33, 5-[2-fluoro-4-[[(4-fluoro-5-methyl-2-pyridyl)amino]methyl]-6-hydroxy-phenyl]-1,1-dioxo-1,2,5-thiadiazolidin-3-one] | 6.29 | 7.70 | 7.40 | 6.01 |
| COc1cccnc1NCc1cc(O)c(N2CC(=O)NS2(=O)=O)c(F)c1 [EXAMPLE 34, 5-[2-fluoro-6-hydroxy-4-[[(3-methoxy-2-pyridyl)amino]methyl]phenyl]-1,1-dioxo-1,2,5-thiadiazolidin-3-one] | < 4.82 | < 5.00 | 5.00 | < 4.82 |
| COc1cccc(NCc2cc(O)c(N3CC(=O)NS3(=O)=O)c(F)c2)n1 [EXAMPLE 35, 5-[2-fluoro-6-hydroxy-4-[[(6-methoxy-2-pyridyl)amino]methyl]phenyl]-1,1-dioxo-1,2,5-thiadiazolidin-3-one] | 4.94 | 7.10 | 7.70 | 5.06 |
| COc1ccc(NCc2cc(O)c(N3CC(=O)NS3(=O)=O)c(F)c2)nc1OC [EXAMPLE 36, 5-[4-[[(5,6-dimethoxy-2-pyridyl)amino]methyl]-2-fluoro-6-hydroxy-phenyl]-1,1-dioxo-1,2,5-thiadiazolidin-3-one] | 6.19 | 7.70 | 8.00 | 5.66 |
| O=C1CN(c2c(O)cc(CNc3ccccn3)cc2F)S(=O)(=O)N1 [EXAMPLE 37, 5-[2-fluoro-6-hydroxy-4-[(2-pyridylamino)methyl]phenyl]-1,1-dioxo-1,2,5-thiadiazolidin-3-one] | 6.35 | 7.52 | 7.15 | 5.90 |
| COc1ccc(NCc2cc(O)c(N3CC(=O)NS3(=O)=O)c(F)c2)nc1 [EXAMPLE 38, 5-[2-fluoro-6-hydroxy-4-[[(5-methoxy-2-pyridyl)amino]methyl]phenyl]-1,1-dioxo-1,2,5-thiadiazolidin-3-one] | 6.27 | 8.00 | 7.22 | 6.07 |
| CC(C)c1ccc(NCc2cc(O)c(N3CC(=O)NS3(=O)=O)c(F)c2)nc1 [EXAMPLE 45, 5-[2-fluoro-6-hydroxy-4-[[(5-isopropyl-2-pyridyl)amino]methyl]phenyl]-1,1-dioxo-1,2,5-thiadiazolidin-3-one] | 5.83 | 8.15 | 7.22 | 5.75 |
| O=C1CN(c2c(O)cc(CNc3cc(OCc4ccccc4)ccn3)cc2F)S(=O)(=O)N1 [EXAMPLE 46, 5-[4-[[(4-benzyloxy-2-pyridyl)amino]methyl]-2-fluoro-6-hydroxy-phenyl]-1,1-dioxo-1,2,5-thiadiazolidin-3-one] | 5.39 | 8.22 | 8.00 | 5.45 |
| O=C1CN(c2c(O)cc(CNc3ccc(OCc4ccccc4)cn3)cc2F)S(=O)(=O)N1 [EXAMPLE 47, 5-[4-[[(5-benzyloxy-2-pyridyl)amino]methyl]-2-fluoro-6-hydroxy-phenyl]-1,1-dioxo-1,2,5-thiadiazolidin-3-one] | 5.20 | 7.40 | 5.84 | 4.88 |
| O=C1CN(c2c(O)cc(CN(c3ccc(C(F)(F)F)cn3)C3CC3)cc2F)S(=O)(=O)N1 [EXAMPLE 50, 5-(4-((cyclopropyl(5-(trifluoromethyl)pyridin-2-yl)amino)methyl)-2-fluoro-6-hydroxyphenyl)-1,2,5-thiadiazolidin-3-one 1,1-dioxide] | < 4.82 | 6.09 | 5.49 | < 4.82 |

Source: patent US20240180886A1, “INHIBITORS OF PROTEIN TYROSINE PHOSPHATASE, COMPOSITIONS, AND METHODS OF USE” (BRISTOL-MYERS SQUIBB COMPANY, priority 2022, published 2024)
